# Assays:
# [1] = tested on: adult dorsal root ganglion (DRG) neurons; assay: Neurite length of dissociated adult DRG neurons cultured on laminin; type: cell-based, rat; details: 10 μM, 1 h
# Experimental: HDAC6 inhibition increases growth cone size of sensory axons. Given our previous work showing that HDAC6 inhibition allows axons to grow on MAG and CSPG substrates (Rivieccio et al., 2009; Butler et al., 2010), we asked how inhibition of HDAC6 alters axon growth in cultures of adult dorsal root ganglion (DRG) neurons. […] (A) Quantification of neurite length for dissociated DRGs cultured on laminin with addition of HDAC6 inhibitor TubA (10 μm) versus vehicle control (DMSO) over 1 h is shown as average fold-change relative to vehicle±SEM (n≥95 neurons across three independent experiments; NS by one-way ANOVA with Bonferroni post hoc). (B and C) show representative DIC images of distal axons from DRG neurons cultured as in A are shown (B). 1-h TubA treatment appears to increase growth cone size. Analyses of growth cone area across multiple experiments show a significant increase in area after TubA treatment (C). Values are average fold-change±SEM (n≥26 neurons over at least three culture preparations; ***, P≤0.005 by one-way ANOVA with Bonferroni post hoc; scale bar=5 μm; 40×/1.3 NA objective used). […] Prominent HDAC6 signals are seen in distal axons and growth cones (arrows) regardless of TubA exposure. […]
# NF-stained cultures were used for neurite growth analyses. […] The growth cone area was measured using ImageJ software from these annotated DIC images. […]
# [2] = tested on: Ac-histone H4; assay: Immunoblotting for Ac-histone H4 in adult DRG neurons (HDAC specificity); type: cell-based, rat
# Experimental: We tested for this specificity in the adult DRG neurons from above by immunoblotting. […] (A) Number of mitochondria in growth cones after exposing DRG cultures to 10 μM TubA versus vehicle (control) for 1 h is shown as average fold-change in number of mitochondria per growth cone±SEM (n=13 axons across three culture preparations; *, P≤0.05 by one-way ANOVA with Bonferroni post hoc analysis). (B) Representative EMs of Remak bundles (arrowheads) in naive Sciatic nerve and nerves after 2 h vehicle (DMSO) or TubA injection are shown. Arrows indicate mitochondria in the unmyelinated axons. Note that a Schwann cell nucleus (asterisk) is seen in the Remak bundle for DMSO image but not the other two micrographs (scale bar=3 μm). (C) Quantification of number of mitochondria per unmyelinated axon from EM images as in B is shown as average±SEM (n≥5; *****, P≤0.0001 by one-way ANOVA with Bonferroni post hoc analysis). (D-F) Quantification for indicated parameters for mitochondrial transport in sciatic nerve in vivo using tetramethylrhodamine, ethyl ester, perchlorate to visualize mitochondria is shown.
# For immunoblotting, protein lysates or immunoprecipitates were denatured by boiling in Laemmli sample buffer, fractionated by SDS-PAGE, and transferred to nitrocellulose membranes. Blots were blocked for 1 h at room temperature with 5% nonfat dry milk in TBS with 0.1% Tween 20 (TBST). Primary antibodies diluted in 5% BSA in TBST were added to the membranes and incubated overnight at 4° C. with rocking. Primary antibodies consisted of rabbit anti-Myc (1:2,000; Cell Signaling; 71D10), rabbit anti-RHOT1 antibody (1:1,000; Aviva Systems Biology; ARP44817 P050), rabbit anti-HDAC6 antibody (1:2,000; Cell Signaling; 7558), rabbit anti-ERK1 (1:5,000; Abcam; ab32537), and affinity-purified custom rabbit anti-Miro1-AcK105 (1:2,500; Twiss laboratory, see above) antibodies. For the anti-Miro1-AcK105 antibody, preimmune and test-bleed sera were used at 1:1,000 dilutions to initially evaluate for specificity. After washing in TBST, blots were incubated with HRP-conjugated anti-rabbit IgG antibodies (1:5,000; Jackson Immunoresearch) diluted in blocking buffer for 1 h at room temperature. Signals were detected using ECL Prime (GE Healthcare) after extensive washing.
# [3] = tested on: axons of adult mouse DRG neurons; assay: Microfluidic devices: exposure limited to axons of DRG neurons; type: cell-based
# Text: To determine if the effect of growth inhibitors on mitochondrial recovery was limited to distal axons, we performed FRAP on more proximal segments of the axon shaft in DRG neurons expressing Mito-GFP. For analyses of recovery, the bleached ROIs were divided into four subregions along the axon length so that we could distinguish anterograde from retrograde transport-driven Mito-GFP recovery. […] Since this effect of MAG-Fc on recovery could derive from either axons or cell body, we cultured dissociated DRGs in microfluiclic devices where we could limit exposure to MAG-Fc and TubA to the axons.
# For primary culture of rat DRG neurons, L4-5 DRG were harvested in Hibernate-A medium (BrainBits) and then dissociated using type I collagenase (50 U/ml; Gibco) for 20 min at 37° C. and 5% CO2(Twiss et al., 2000). Dissociated ganglia were cultured in complete medium containing 10% FetalPlex animal serum complex (Gemini), 1% N1 Supplement (Sigma-Aldrich), and 10 μM cytosine-arabinoside (Sigma-Aldrich) on laminin/poly-L-lysine-coated substrates. Mouse neurons were used for cultures in microfluidic devices. For these, all cervical, thoracic, and lumbar DRGs were collected and digested with collagenase (4 mg/ml, Worthington) and dispase (1 mg/ml; Sigma-Aldrich) for 45 min at 37° C. and 5% CO2; these cells were plated in DMEM/F12 and 10% FBS at 37° C. and 5% CO2. […]
structure (smiles),measurement,setting,value
"CN1CCc2c(c3ccccc3n2Cc2ccc(C(=O)NO)cc2)C1 [TubA, tubastatin]",neurite length vs vehicle,[1],did not significantly affect neurite length
same,Ac-histone H4 levels,[2]; 1 μM,no change in Ac-histone H4 levels
same,Ac-histone H4 levels,[2]; 10 μM,no change in Ac-histone H4 levels
same,Ac-histone H4 levels,[2]; 100 μM,only modest increase in Ac-histone H4
same,effect on MAG-Fc-dependent decrease in distal axon mitochondria,[3]; TubA in axonal compartment,prevented by TubA treatment
same,axon retraction and end bulb formation in distal axons after MAG-Fc,[3]; TubA treatment,prevented the axon retraction and end bulb formation

# From US20210330756A1, “Acetylation of Miro1” (University of South Carolina, priority 2020, published 2021)
